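Where inhibition never reached the appropriate level, the endpoint shown equals the highest concentration tested. Otherwise, values were interpolated linearly from a five-concentration, 48-hour dose response in 96-well plates. GI50 is the concentration that inhibits growth by half.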 Calls of active or inactive are those of the source. Cut-off read from the data, not from the text of the source: active = GI50 up to about 1.1 µM and inactive = higher.
Assays:
Experiment in all cases: NCI-60 cell line screen, 48 h
SN12C = test system: SN12C
NCI-H226 = test system: NCI-H226
M14 = test system: M14
A549 = test system: A549
EKVX = test system: EKVX
K562 = test system: K562
SNB-75 = test system: SNB-75
KM12 = test system: KM12
DLD-1 = test system: DLD-1
LOX IMVI = test system: LOX IMVI
NCI-H460 = test system: NCI-H460
SF-295 = test system: SF-295
HOP-62 = test system: HOP-62
UACC-62 = test system: UACC-62
HOP-92 = test system: HOP-92
DMS-273 = test system: DMS-273
SF-539 = test system: SF-539
OVCAR-5 = test system: OVCAR-5
HCT-116 = test system: HCT-116
NCI-H522 = test system: NCI-H522
SR = test system: SR
U-251 = test system: U-251
RXF 393 = test system: RXF 393
HL-60 = test system: HL-60
KM-20L2 = test system: KM-20L2
IGROV-1 = test system: IGROV-1
TK-10 = test system: TK-10
OVCAR-4 = test system: OVCAR-4
SK-MEL-28 = test system: SK-MEL-28
SK-MEL-5 = test system: SK-MEL-5
OVCAR-8 = test system: OVCAR-8
Malme-3M = test system: Malme-3M
RPMI-8226 = test system: RPMI-8226
MOLT-4 = test system: MOLT-4
ACHN = test system: ACHN
SNB-19 = test system: SNB-19
UACC-257 = test system: UACC-257
CCRF-CEM = test system: CCRF-CEM
M19-MEL = test system: M19-MEL
UO-31 = test system: UO-31
SNB-78 = test system: SNB-78
SK-OV-3 = test system: SK-OV-3
SF-268 = test system: SF-268
XF498 = test system: XF498
SK-MEL-2 = test system: SK-MEL-2
SW-620 = test system: SW-620
NCI-H23 = test system: NCI-H23
HCC 2998 = test system: HCC 2998
CAKI-1 = test system: CAKI-1
DMS-114 = test system: DMS-114
HT-29 = test system: HT-29
HCT-15 = test system: HCT-15
786-0 = test system: 786-0
LXFL 529 = test system: LXFL 529
RXF 631 = test system: RXF 631
HOP-18 = test system: HOP-18
A498 = test system: A498

In the case of `O=c1nc(N2CCCC2)nc(N2CCCC2)s1`, the GI50 (SN12C) is reported as > 100 µM (inactive), the GI50 (NCI-H226) is reported as 7.21 µM (inactive) and the GI50 (M14) is reported as > 100 µM (inactive). The GI50 (A549) was > 100 µM (inactive), the GI50 (EKVX) was > 100 µM (inactive) and the GI50 (K562) was > 100 µM (inactive). The GI50 (SNB-75) was > 100 µM (inactive), the GI50 (KM12) was > 100 µM (inactive) and the GI50 (DLD-1) was > 100 µM (inactive). For the same molecule, the GI50 (LOX IMVI) was > 100 µM (inactive), the GI50 (NCI-H460) was > 100 µM (inactive) and the GI50 (SF-295) was > 100 µM (inactive). For the same molecule, the GI50 (HOP-62) was > 100 µM (inactive), the GI50 (UACC-62) was > 100 µM (inactive) and the GI50 (HOP-92) was > 100 µM (inactive). For the same molecule, the GI50 (DMS-273) was > 100 µM (inactive), the GI50 (SF-539) was > 100 µM (inactive) and the GI50 (OVCAR-5) was > 100 µM (inactive). For the same molecule, the GI50 (HCT-116) was > 100 µM (inactive), the GI50 (NCI-H522) was > 100 µM (inactive) and the GI50 (SR) was > 100 µM (inactive). The GI50 (U-251) was > 100 µM (inactive), the GI50 (RXF 393) was > 100 µM (inactive) and the GI50 (HL-60) was > 100 µM (inactive). The GI50 (KM-20L2) was > 100 µM (inactive), the GI50 (IGROV-1) was > 100 µM (inactive) and the GI50 (TK-10) was > 100 µM (inactive). The GI50 (OVCAR-4) was > 100 µM (inactive), the GI50 (SK-MEL-28) was > 100 µM (inactive) and the GI50 (SK-MEL-5) was > 100 µM (inactive). The GI50 (OVCAR-8) was > 100 µM (inactive), the GI50 (Malme-3M) was > 100 µM (inactive) and the GI50 (RPMI-8226) was > 100 µM (inactive). For the same molecule, the GI50 (MOLT-4) was > 100 µM (inactive), the GI50 (ACHN) was > 100 µM (inactive) and the GI50 (SNB-19) was > 100 µM (inactive). For the same molecule, the GI50 (UACC-257) was > 100 µM (inactive), the GI50 (CCRF-CEM) was > 100 µM (inactive) and the GI50 (M19-MEL) was > 100 µM (inactive). The GI50 (UO-31) was 78.7 µM (inactive), the GI50 (SNB-78) was > 100 µM (inactive) and the GI50 (SK-OV-3) was > 100 µM (inactive). For the same molecule, the GI50 (SF-268) was > 100 µM (inactive), the GI50 (XF498) was > 100 µM (inactive) and the GI50 (SK-MEL-2) was > 100 µM (inactive). For the same molecule, the GI50 (SW-620) was > 100 µM (inactive), the GI50 (NCI-H23) was > 100 µM (inactive) and the GI50 (HCC 2998) was > 100 µM (inactive). For the same molecule, the GI50 (CAKI-1) was 97.9 µM (inactive), the GI50 (DMS-114) was > 100 µM (inactive) and the GI50 (HT-29) was > 100 µM (inactive). The GI50 (HCT-15) was greater than 100 µM, the GI50 (786-0) was > 100 µM (inactive) and the GI50 (LXFL 529) was > 100 µM (inactive). For the same molecule, the GI50 (RXF 631) was > 100 µM (inactive), the GI50 (HOP-18) was > 100 µM (inactive) and the GI50 (A498) was > 100 µM (inactive).

— ChEMBL document CHEMBL1201862, “PubChem BioAssay data set” (2004)
